From ChEMBL document CHEMBL1201862, “PubChem BioAssay data set” (2004)
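Cells were grown in 96-well plates and exposed to each compound for 48 hours at five concentrations; endpoints were interpolated linearly between bracketing concentrations, or set to the highest concentration if not reached. Abbreviation: GI50, concentration required for 50% inhibition of growth.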 Activity calls are given as the source filed them. Rule as the data show it: active = GI50 up to about 1.1 µM and inactive = higher.

Experiments:
Assay in all cases: NCI anticancer screen, dose series, 48 h
EKVX = test system: EKVX
OVCAR-3 = test system: OVCAR-3
A549 = test system: A549
BT-549 = test system: BT-549
Malme-3M = test system: Malme-3M
Hs-578T = test system: Hs-578T
U-251 = test system: U-251
NCI-H460 = test system: NCI-H460
MDA-N = test system: MDA-N
T47D = test system: T47D
MCF7 = test system: MCF7
HCT-116 = test system: HCT-116
SK-MEL-2 = test system: SK-MEL-2
NCI-H23 = test system: NCI-H23
PC-3 = test system: PC-3
SK-MEL-28 = test system: SK-MEL-28
OVCAR-4 = test system: OVCAR-4
HOP-92 = test system: HOP-92
RXF 393 = test system: RXF 393
SW-620 = test system: SW-620

| SMILES | GI50 (EKVX) | GI50 (OVCAR-3) | GI50 (A549) | GI50 (BT-549) | GI50 (Malme-3M) | GI50 (Hs-578T) | GI50 (U-251) | GI50 (NCI-H460) | GI50 (MDA-N) | GI50 (T47D) | GI50 (MCF7) | GI50 (HCT-116) | GI50 (SK-MEL-2) | GI50 (NCI-H23) | GI50 (PC-3) | GI50 (SK-MEL-28) | GI50 (OVCAR-4) | GI50 (HOP-92) | GI50 (RXF 393) | GI50 (SW-620) |
| --- | --- | --- | --- | --- | --- | --- | --- | --- | --- | --- | --- | --- | --- | --- | --- | --- | --- | --- | --- | --- |
| COC(=O)C1=C2Nc3ccccc3C23CCN2C(O)C4(CC5CC67CCOC6CCN6CCC8(c9cccc(OC)c9N(C4)C58O)C67)C4OCCC4(C1)C23 (stereo not given) | 52.8 µM (inactive) | > 100 µM (inactive) | > 100 µM (inactive) | > 100 µM (inactive) | 56.4 µM (inactive) | 22.5 µM (inactive) | 35.6 µM (inactive) | 76.7 µM (inactive) | 98.2 µM (inactive) | 20.3 µM (inactive) | 47.2 µM (inactive) | 34.5 µM (inactive) | 84.1 µM (inactive) | > 100 µM (inactive) | 34.8 µM (inactive) | 97.5 µM (inactive) | 61.9 µM (inactive) | 27.2 µM (inactive) | 49.7 µM (inactive) | 62.4 µM (inactive) |
| O=C1c2cc3c(cc2NC(c2ccccc2F)C1O)OCO3 (stereo not given) | 16.9 µM (inactive) | 20.5 µM (inactive) | 11.7 µM (inactive) | 57.1 µM (inactive) | 9.86 µM (inactive) | 18.1 µM (inactive) | 14.9 µM (inactive) | 9.46 µM (inactive) | 2.36 µM (inactive) | > 59.6 µM (inactive) | 5.27 µM (inactive) | 3.97 µM (inactive) | 24.3 µM (inactive) | 22.6 µM (inactive) | 10.6 µM (inactive) | 18.5 µM (inactive) | 35.8 µM (inactive) | 33.6 µM (inactive) | 22.4 µM (inactive) | 5.19 µM (inactive) |
| O=C1CC(NCCCNC2CC(=O)c3c(Br)sc(Br)c32)c2c(Br)sc(Br)c21 (stereo not given) | 2.22 µM (inactive) | 1.82 µM (inactive) | 2.69 µM (inactive) | 1.73 µM (inactive) | 1.98 µM (inactive) | 4.58 µM (inactive) | 1.82 µM (inactive) | 3.62 µM (inactive) | 1.79 µM (inactive) | 2.11 µM (inactive) | 0.369 µM (active) | 1.36 µM (inactive) | 1.87 µM (inactive) | 1.83 µM (inactive) | 1.57 µM (inactive) | 3.15 µM (inactive) | 2.93 µM (inactive) | 2.48 µM (inactive) | 1.69 µM (inactive) | 2.31 µM (inactive) |
| CC(C)(C)OC(=O)NCCCCC(N)NC(=O)c1ccccc1 (stereo not given) | > 100 µM (inactive) | > 100 µM (inactive) | > 100 µM (inactive) | > 100 µM (inactive) | > 100 µM (inactive) | > 100 µM (inactive) | > 100 µM (inactive) | > 100 µM (inactive) | > 100 µM (inactive) | > 100 µM (inactive) | > 100 µM (inactive) | > 100 µM (inactive) | > 100 µM (inactive) | > 100 µM (inactive) | > 100 µM (inactive) | > 100 µM (inactive) | > 100 µM (inactive) | > 100 µM (inactive) | > 100 µM (inactive) | > 100 µM (inactive) |
| CCN(CC)CCNC(=O)c1ccc(I)cc1 | > 100 µM (inactive) | > 100 µM (inactive) | > 100 µM (inactive) | > 100 µM (inactive) | > 100 µM (inactive) | > 100 µM (inactive) | > 100 µM (inactive) | > 100 µM (inactive) | > 100 µM (inactive) | 64.4 µM (inactive) | > 100 µM (inactive) | > 100 µM (inactive) | > 100 µM (inactive) | > 100 µM (inactive) | > 100 µM (inactive) | > 100 µM (inactive) | > 100 µM (inactive) | > 100 µM (inactive) | > 100 µM (inactive) | > 100 µM (inactive) |
| CN1CCc2[nH]nc(-c3n[nH]c4c3CN(C)CC4)c2C1 | > 100 µM (inactive) | > 100 µM (inactive) | > 100 µM (inactive) | > 100 µM (inactive) | > 100 µM (inactive) | > 100 µM (inactive) | > 100 µM (inactive) | > 100 µM (inactive) | > 100 µM (inactive) | > 100 µM (inactive) | > 100 µM (inactive) | > 100 µM (inactive) | > 100 µM (inactive) | > 100 µM (inactive) | > 100 µM (inactive) | 44.9 µM (inactive) | > 100 µM (inactive) | > 100 µM (inactive) | > 100 µM (inactive) | > 100 µM (inactive) |
| COC(=O)C1(Cc2ccc(C)cc2)Cc2c(C)cccc2C1=O (stereo not given) | 18.2 µM (inactive) | 11.7 µM (inactive) | 18.2 µM (inactive) | 16.3 µM (inactive) | 13 µM (inactive) | 15.9 µM (inactive) | 17.1 µM (inactive) | 17.6 µM (inactive) | 3.27 µM (inactive) | 18.5 µM (inactive) | 11.2 µM (inactive) | 13.3 µM (inactive) | 12.9 µM (inactive) | 35.3 µM (inactive) | 12.4 µM (inactive) | 26 µM (inactive) | 20.3 µM (inactive) | 16.6 µM (inactive) | 9.71 µM (inactive) | 10.9 µM (inactive) |
| O=c1c2cc(I)ccc2nc(Sc2ccc([N+](=O)[O-])cc2[N+](=O)[O-])n1Cc1ccccc1 | 3.55 µM (inactive) | 1.9 µM (inactive) | 15.2 µM (inactive) | 1.29 µM (inactive) | 5.51 µM (inactive) | 4.78 µM (inactive) | 3.81 µM (inactive) | 4.24 µM (inactive) | 1.52 µM (inactive) | 1.71 µM (inactive) | 2.02 µM (inactive) | 1.26 µM (inactive) | 1.85 µM (inactive) | 3.02 µM (inactive) | 2.89 µM (inactive) | 7.14 µM (inactive) | 2.49 µM (inactive) | 2.33 µM (inactive) | 2.38 µM (inactive) | 2.47 µM (inactive) |
| COc1cc2c3c(cc(Cl)nc3c1OC)C(O)(CC(=O)c1ccccc1)C(=O)N2 (stereo not given) | 5.14 µM (inactive) | 15.6 µM (inactive) | 18 µM (inactive) | 16.4 µM (inactive) | 2.38 µM (inactive) | 21.7 µM (inactive) | 17.1 µM (inactive) | 21 µM (inactive) | 1.93 µM (inactive) | 3.56 µM (inactive) | 1.88 µM (inactive) | 4.69 µM (inactive) | 15.1 µM (inactive) | 17 µM (inactive) | 15.3 µM (inactive) | 16 µM (inactive) | 2.35 µM (inactive) | 1.94 µM (inactive) | 13.4 µM (inactive) | 4 µM (inactive) |
| CCN(CCCl)c1cc(CN(C)C)cc(NC(=O)c2ccc(C(=O)Nc3cc(CN(C)C)cc(N(CC)CCCl)c3)cc2)c1 | 1.31 µM (inactive) | 0.384 µM (active) | 0.0955 µM (active) | 0.226 µM (active) | 0.292 µM (active) | 0.103 µM (active) | 0.0723 µM (active) | < 0.0211 µM (active) | 0.154 µM (active) | 0.134 µM (active) | 0.017 µM (active) | 0.0962 µM (active) | 0.12 µM (active) | 0.0665 µM (active) | 0.19 µM (active) | 0.159 µM (active) | 0.5 µM (active) | 0.184 µM (active) | 0.0278 µM (active) | 0.149 µM (active) |
| C[C@H]1CC(=O)[C@@]2(O)C#C/C=C\C#C[C@@H]3Nc4c(cc(O)c5c4C(=O)c4ccccc4C5=O)[C@]24O[C@]314 | 0.228 µM (active) | 0.136 µM (active) | 0.00543 µM (active) | 0.0194 µM (active) | 0.01 µM (active) | 0.811 µM (active) | 0.00701 µM (active) | < 0.001 µM (active) | 0.0309 µM (active) | 0.0305 µM (active) | < 0.001 µM (active) | 0.00982 µM (active) | 0.478 µM (active) | 0.00461 µM (active) | 0.259 µM (active) | 0.0338 µM (active) | 0.271 µM (active) | 0.0157 µM (active) | 0.0114 µM (active) | 0.0153 µM (active) |
| COc1cc2c(cc1OC)C(C1CC1)ON(C)CC2 (stereo not given) | 58.7 µM (inactive) | > 100 µM (inactive) | > 100 µM (inactive) | > 100 µM (inactive) | > 100 µM (inactive) | > 100 µM (inactive) | > 100 µM (inactive) | > 100 µM (inactive) | > 100 µM (inactive) | > 100 µM (inactive) | > 100 µM (inactive) | > 100 µM (inactive) | > 100 µM (inactive) | > 100 µM (inactive) | > 100 µM (inactive) | > 100 µM (inactive) | > 100 µM (inactive) | > 100 µM (inactive) | > 100 µM (inactive) | > 100 µM (inactive) |
| C[N+](C)(C)/N=C\c1ccc(O)c(O)c1 | > 100 µM (inactive) | > 100 µM (inactive) | > 100 µM (inactive) | > 100 µM (inactive) | > 100 µM (inactive) | > 100 µM (inactive) | > 100 µM (inactive) | > 100 µM (inactive) | > 100 µM (inactive) | > 100 µM (inactive) | > 100 µM (inactive) | > 100 µM (inactive) | > 100 µM (inactive) | > 100 µM (inactive) | > 100 µM (inactive) | > 59.4 µM (inactive) | > 100 µM (inactive) | > 100 µM (inactive) | > 100 µM (inactive) | > 100 µM (inactive) |
| CN(CCNC(=O)c1c[nH]c2c1ccc1ccccc12)CCNC(=O)c1c[nH]c2c1ccc1ccccc12 | 3.62 µM (inactive) | 4.29 µM (inactive) | 2.2 µM (inactive) | 9.35 µM (inactive) | 8.55 µM (inactive) | 2.94 µM (inactive) | 2 µM (inactive) | 1.96 µM (inactive) | 2.31 µM (inactive) | 1.14 µM (inactive) | 1.43 µM (inactive) | 1.76 µM (inactive) | 1.99 µM (inactive) | 4.39 µM (inactive) | 2.26 µM (inactive) | 2 µM (inactive) | 3.54 µM (inactive) | 1.75 µM (inactive) | 1.14 µM (inactive) | 1.91 µM (inactive) |
